Each structure is given as a SMILES string.

T1 sequence (P41279 30-397): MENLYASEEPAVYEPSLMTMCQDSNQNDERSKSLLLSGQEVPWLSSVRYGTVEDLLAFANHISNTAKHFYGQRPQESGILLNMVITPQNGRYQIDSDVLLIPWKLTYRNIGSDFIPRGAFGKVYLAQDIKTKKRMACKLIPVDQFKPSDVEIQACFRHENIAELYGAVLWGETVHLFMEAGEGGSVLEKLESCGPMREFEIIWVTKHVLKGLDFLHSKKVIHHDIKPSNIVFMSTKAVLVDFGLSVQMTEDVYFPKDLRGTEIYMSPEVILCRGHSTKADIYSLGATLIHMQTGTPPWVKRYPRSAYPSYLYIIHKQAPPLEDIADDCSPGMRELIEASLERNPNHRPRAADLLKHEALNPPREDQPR

The assay has as its target T1, human Cot catalytic domain (30-397 amino acids) (Homo sapiens, UniProt P41279).
T1 construct: Purified recombinant human Cot catalytic domain (30-397 amino acids) was purchased from Cama Biosciences; purchased Cama Biosciences (so in the source)
Briefly: High Throughput Cot Biochemical Assay (KinEASE TR-FRET). The settings on record: Cot KinEASE TR-FRET, 400 μM ATP; read-out: IC50 HTRF. The gist of the method:
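Phosphorylation of 1 μM XL665-STK3 peptide by 5 nM Cot catalytic domain was measured by time-resolved FRET using a europium […] antibody. ATP was 400 μM; buffer was 10 mM MOPS pH 7.0 with Mg2+ and DTT.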
Regarding `CCN1CC[C@@H](n2cc(C(Nc3cc(Cl)c4ncc(C#N)c(Nc5ccc(F)c(Cl)c5)c4c3)c3ccc(Cl)cc3)nn2)C1` (stereo partly drawn) [Example 868, 8-chloro-4-((3-chloro-4-fluorophenyl)amino)-6-(((4-chlorophenyl)(1-((R)-1-ethylpyrrolidin-3-yl)-1H-1,2,3-triazol-4-yl)methyl)amino)quinoline-3-carbonitrile], the IC50 – broadly, the concentration needed to halve the response being measured – amounted to 119 nM. Regarding `CCN1CC(n2cc(C(Nc3cc(Cl)c4ncc(C#N)c(Nc5ccc(F)c(Cl)c5)c4c3)c3ccc(F)cc3)nn2)C1` (stereo not drawn) [Example 870, 8-chloro-4-((3-chloro-4-fluorophenyl)amino)-6-(((1-(1-ethylazetidin-3-yl)-1H-1,2,3-triazol-4-yl)(4-fluorophenyl)methyl)amino) quinoline-3-carbonitrile], the concentration for half-maximal inhibition (IC50) amounted to 27 nM. Consider `CCN1CC(n2cc(C(Nc3cc(Cl)c4ncc(C#N)c(Nc5ccc(F)c(Cl)c5)c4c3)c3ccc(Cl)cc3)nn2)C1` (stereo not drawn) [Example 871, 8-chloro-4-((3-chloro-4-fluorophenyl)amino)-6-(((4-chlorophenyl)(1-(1-ethylazetidin-3-yl)-1H-1,2,3-triazol-4-yl)methyl)amino)quinoline-3-carbonitrile], for which the IC50 amounted to 90 nM. In the case of `N#Cc1cnc2c(Cl)cc(NC(c3cc(C(F)(F)F)cc(C(F)(F)F)c3)c3cn(C4CCNCC4)nn3)cc2c1Nc1ccc(F)c(Cl)c1` (stereo not drawn) [Example 874, 6-(((3,5-bis(trifluoromethyl)phenyl)(1-(piperidin-4-yl)-1H-1,2,3-triazo1-4-yl)methyl)amino)-8-chloro-4-((3-chloro-4-fluorophenyl)amino)quinoline-3-carbonitrile], the IC50 came to 97 nM. As for `N#Cc1cnc2c(Cl)cc(NC(c3cc(F)c(F)c(F)c3)c3cn(C4CCNCC4)nn3)cc2c1Nc1ccc(F)c(Cl)c1` (stereo not drawn) [Example 875, 8-chloro-4-((3-chloro-4-fluorophenyl)amino)-6-(((1-(piperidin-4-yl)-1H-1,2,3-triazol-4-yl)(3,4,5-trifluorophenyl)methyl)amino) quinoline-3-carbonitrile], the half-maximal inhibitory concentration (IC50) worked out at 66 nM.

Turning to `N#Cc1cnc2c(Cl)cc(NC(c3ccc(F)cc3)c3cn([C@H]4CCN(C(=O)OCc5ccccc5)C4)nn3)cc2c1Nc1ccc(F)c(Cl)c1` (stereo partly drawn) [Example 876, benzyl (3S)-3-(4-(((8-chloro-4-((3-chloro-4-fluorophenyl)amino)-3-cyanoquinolin-6-yl)amino)(4-fluorophenyl)methyl)-1H-1,2,3-triazol-1-yl)pyrrolidine-1-carboxylate], the IC50 came out at 385 nM. As for `CCN1CC[C@H](n2cc(C(Nc3cc(Cl)c4ncc(C#N)c(Nc5ccc(F)c(Cl)c5)c4c3)c3ccc(F)cc3)nn2)C1` (stereo partly drawn) [Example 877, 8-chloro-4-((3-chloro-4-fluorophenyl)amino)-6-(((1-((S)-1-ethylpyrrolidin-3-yl)-1H-1,2,3-triazol-4-yl)(4-fluorophenyl)methyl)amino) quinoline-3-carbonitrile], the figure is 47 nM; as for `N#Cc1cnc2c(Cl)cc(NC(c3ccc(Cl)cc3)c3cn([C@H]4CCN(C(=O)OCc5ccccc5)C4)nn3)cc2c1Nc1ccc(F)c(Cl)c1` (stereo partly drawn) [Example 878, benzyl (3S)-3-(4-(((8-chloro-4-((3-chloro-4-fluorophenyl)amino)-3-cyanoquinolin-6-yl)amino)(4-chlorophenyl)methyl)-1H-1,2,3-triazol-1-yl)pyrrolidine-1-carboxylate], 7700 nM; as for `CCN1CC[C@H](n2cc(C(Nc3cc(Cl)c4ncc(C#N)c(Nc5ccc(F)c(Cl)c5)c4c3)c3ccc(Cl)cc3)nn2)C1` (stereo partly drawn) [Example 879, 8-chloro-4-((3-chloro-4-fluorophenyl)amino)-6-(((4-chlorophenyl)(1-((S)-1-ethylpyrrolidin-3-yl)-1H-1,2,3-triazol-4-yl)methyl)amino)quinoline-3-carbonitrile], 101 nM. Regarding `N#Cc1cnc2c(Cl)cc(NC(c3ccc(Cl)cc3)c3cn([C@H]4CCNC4)nn3)cc2c1Nc1ccc(F)c(Cl)c1` (stereo partly drawn) [Example 880, 8-chloro-4-((3-chloro-4-fluorophenyl)amino)-6-(((4-chlorophenyl)(1-((S)-pyrrolidin-3-yl)-1H-1,2,3-triazol-4-yl)methyl)amino)quinoline-3-carbonitrile], the IC50 is 68 nM. As for `Cc1cc(F)ccc1C(Nc1cc(Cl)c2ncc(C#N)c(Nc3ccc(F)c(Cl)c3)c2c1)c1cn(C2CCN(C(=O)OCc3ccccc3)CC2)nn1` (stereo not drawn) [Example 883, benzyl 4-(4-(((8-chloro-4-((3-chloro-4-fluorophenyl)amino)-3-cyanoquinolin-6-yl)amino)(4-fluoro-2-methylphenyl)methyl)-1H-1,2,3-triazol-1-yl) piperidine-1-carboxylate], the figure is 6680 nM. As for `N#Cc1cnc2c(Cl)cc(NC(c3ccc(F)cc3)c3cn(C4CCNCC4)nn3)cc2c1Nc1ccc(F)c(Cl)c1` (stereo not drawn) [Example 886, 8-chloro-4-((3-chloro-4-fluorophenyl)amino)-6-(((4-fluorophenyl)(1-(piperidin-4-yl)-1H-1,2,3-triazol-4-yl)methyl)amino)quinoline-3-carbonitrile], the figure is 11 nM; as for `N#Cc1cnc2c(Cl)cc(NC(c3ccccc3)c3c[nH]nn3)cc2c1Nc1ccc(F)c(Cl)c1` (stereo not drawn) [Example 888, 8-chloro-4-((3-chloro-4-fluorophenyl)amino)-6-((phenyl(1H-1,2,3-triazol-4-yl)methyl)amino)quinoline-3-carbonitrile], 50 nM; as for `N#Cc1cnc2c(Cl)cc(NC(c3cc(F)c(F)c(F)c3)c3cn(C4CCN(C(=O)OCc5ccccc5)CC4)nn3)cc2c1Nc1ccc(F)c(Cl)c1` (stereo not drawn) [Example 890, benzyl 4-(4-(((8-chloro-4-((3-chloro-4-fluorophenyl)amino)-3-cyanoquinolin-6-yl)amino)(3,4,5-trifluorophenyl)methyl)-1H-1,2,3-triazol-1-yl)piperidine-1-carboxylate], > 10000 nM. As for `Cn1cc(C(Nc2cc(Cl)c3ncc(C#N)c(Nc4ccc(F)c(Cl)c4)c3c2)c2ccc(F)c(F)c2)nn1` (stereo not drawn) [Example 891, 8-chloro-4-((3-chloro-4-fluorophenyl)amino)-6-(((3,4-difluorophenyl)(1-methyl-1H-1,2,3-triazol-4-yl)methyl)amino)quinoline-3-carbonitrile], the half-maximal inhibitory concentration (IC50) was found to be 30 nM. The value for `Cn1cc(C(Nc2cc(Cl)c3ncc(C#N)c(Nc4ccc(F)c(Cl)c4)c3c2)c2ccc(Cl)c(Cl)c2)nn1` (stereo not drawn) [Example 892, 8-chloro-4-((3-chloro-4-fluorophenyl)amino)-6-(((3,4-dichlorophenyl)(1-methyl-1H-1,2,3-triazol-4-yl)methyl)amino)quinoline-3-carbonitrile] was 78 nM. Turning to `N#Cc1cnc2c(Cl)cc(NC(c3ccc(F)cc3)c3c[nH]nn3)cc2c1Nc1ccc(F)c(Cl)c1` (stereo not drawn) [Example 893, 8-chloro-4-((3-chloro-4-fluorophenyl)amino)-6-(((4-fluorophenyl)(1H-1,2,3-triazol-4-yl)methyl)amino)quinoline-3-carbonitrile], the IC50 was 39 nM. With `N#Cc1cnc2c(Cl)cc(NC(c3ccc(OC(F)(F)F)cc3)c3cn(C4CCN(C(=O)OCc5ccccc5)CC4)nn3)cc2c1Nc1ccc(F)c(Cl)c1` (stereo not drawn) [Example 896, benzyl 4-(4-(((8-chloro-4-((3-chloro-4-fluorophenyl)amino)-3-cyanoquinolin-6-yl)amino)(4-(trifluoromethoxy)phenyl)methyl)-1H-1,2,3-triazol-1-yl)piperidine-1-carboxylate], the IC50 was > 10000 nM.

For the origin of these results see US10316017B2, “COT modulators and methods of use thereof” (Gilead Sciences, Inc., priority 2015, dated 2019).
